Laboratory results published in the METLIN SMRT retention time set (Domingo-Almenara et al. 2019).

Assay: gradient 5% acetonitrile 3 min, to 50% in 2 min, to 85% in 15 min, held 3 min, 100 µL/min
Settings: column: Zorbax Extend-C18 2.1 x 50 mm; eluents: water / acetonitrile, 0.1% formic acid
How it was run: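 Using water and acetonitrile that each contained 0.1% formic acid, mixtures of ~100 pure standards were separated at 100 μL/min on a Zorbax Extend-C18 column (2.1 × 50 mm, 1.8 μm). The HPLC fed a quadrupole time-of-flight mass spectrometer working in positive and negative ionization mode, with dead and dwell volumes of 40 μL and 900 μL. Data were acquired over 3 months. Retention time was read from computationally picked adduct peaks after manual inspection of each.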

Compound	RP-LC retention time [s]
CCOC(=O)c1sc2ccccc2c1S(=O)(=O)N1CCC(C(N)=O)(N2CCCCC2)CC1	656
Cc1sc2ccn(C)c(=O)c2c1C(=O)NCc1ccc(N2CCOCC2)cc1	647
Cc1ccc(NC(=O)C2CCN(C(=O)c3ncn4c3COC(c3ccc(F)cc3)C4)CC2)cc1 (configuration not stated)	804
O=S(=O)(c1ccc(F)c(F)c1)N1CCC(CN2CCCCCC2)CC1	666
COCC(C)(O)CNC(=O)c1ccc(F)c(F)c1 (configuration not stated)	634
CC(CNC(=O)C1CCN(C(=O)c2ncn3c2COC(c2ccc(F)cc2)C3)CC1)c1ccccc1 (configuration not stated)	754
CCOC(=O)Cn1c(CNC(=O)c2ccco2)nc2ccccc21	618
COc1ccc(NC(=O)N2C[C@@H](F)C[C@H]2C(=O)N2CCCCC2)cc1	664
O=C(Nc1cccc(Cl)c1)C(=O)c1cn(CC(=O)N2CCOCC2)c2ccccc12	997
Cc1nc(-c2cc(S(=O)(=O)Nc3ccc(Br)cc3)c(C)s2)cs1	1070
O=C(Nc1ccccc1NC(=O)C1CC(=O)N(c2ccc(F)cc2)C1)c1ccsc1 (configuration not stated)	739
CC1CN(C(=O)c2ccc(C#N)cc2)c2ccccc2O1 (configuration not stated)	914
c1cc(-c2nc(-c3ccc4c(c3)ncn4CCN3CCCCC3)no2)ccn1	581
FC(F)(F)c1cccc(CSc2ccc(-n3ccnc3)nn2)c1	671
CN1CCN(c2ncc3c(=O)n(CC4CCCO4)ccc3n2)CC1 (configuration not stated)	567
O=C(c1cccc(Br)c1)N1CCC(n2c(-c3ccoc3)nc3cccnc32)C1 (configuration not stated)	775
COc1ccc(CNC(=O)C2(C)CCCN(S(=O)(=O)c3ccc(Cl)cc3)C2)cc1 (configuration not stated)	981
O=C(NCCCN1CCCCC1)C1=C2CCCN2c2ccc(F)cc2S1(=O)=O	606
O=c1n(CCOc2ccc(F)cc2)nc2ccc(S(=O)(=O)N3CCOCC3)cn12	811
O=C(NCCC1=CCCCC1)c1csc(Nc2ncccn2)n1	797
CCc1ccc(S(=O)(=O)N2CCn3c(nnc3C3CCN(C(C)C)C3)C2)cc1 (configuration not stated)	571

Compound	RP-LC retention time [s]
Cn1cc(C(=O)N2CCCCCCNC(=O)[C@@H]3CCC[C@@H]32)cn1	622
COC(=O)c1c(C)[nH]c(C(=O)N2CCC(CC(=O)NCCC3=CCCCC3)CC2)c1C	787
Cc1cc(S(=O)(=O)Nc2cccn3cnnc23)ccc1F	686
CC(=O)N1CCCSc2ccc(S(=O)(=O)N3CCN(c4ccc(Cl)cc4)CC3)cc21	983
COCCn1nc2n(c1=O)CCC1(CC2)CCN(C(=O)C2CCCO2)CC1 (configuration not stated)	600
O=C(NCc1cccc(Br)c1)C1CCCN(c2ccc(N3CCOCC3)nn2)C1 (configuration not stated)	653
CC(=O)c1ccc(NC(=O)c2cnc(-c3ccc(F)cc3)nc2-c2ccncc2)cc1	837
CC1(C(=O)NCc2ccccc2)Cn2cnc(C(=O)NCCc3ccccc3)c2C(=O)N1C1CC1 (configuration not stated)	754
CC(=O)Nc1ccc(S(=O)(=O)NC2(c3nc(C4CC4)no3)CCCCC2)cc1Cl	813
O=C(c1cccs1)N1CCCc2cc(NS(=O)(=O)c3cc(F)ccc3F)ccc21	832
CCOCCCNC(=O)CN1c2ccc(F)cc2-c2ccccc2S1(=O)=O	820
O=C(NC1CCN(c2cc(-c3ccccc3)[nH]n2)C1)c1ccc2cc[nH]c2c1 (configuration not stated)	792
O=C(NCc1ccco1)c1cc(N2C(=O)CCS2(=O)=O)ccc1Cl	675
CC(C)c1ccc(-n2nc(N3CCN(C(=O)c4cc5ccccc5[nH]4)CC3)ccc2=O)cc1	998
CN1c2ccccc2C(=O)NC12CCN(C(=O)c1ccccc1F)CC2	712
CCN(C(=O)C1CCN(C(=O)c2ccc(F)cc2)CC1)C1CCCCC1	885
O=C(Nc1ccc2nncn2c1)Nc1ccc(F)cc1F	680
O=C(NCc1ccccn1)C1c2ccccc2C(=O)N(Cc2ccccc2)C12CCCC2 (configuration not stated)	704
Cc1nnc2c(NC(=O)c3cc(F)ccc3F)cccn12	705
CC(C)CN1CCn2cc(S(=O)(=O)Nc3ccccc3F)cc2C1=O	1320

The remaining lines, values ahead:

RP-LC retention time [s]	Compound
752	Cc1cc(NC(=O)CSc2ccc(-c3cccc([N+](=O)[O-])c3)nn2)no1
798	COc1cc(C(C)c2cc3c(cc2OCCO)OCO3)cc(OC)c1OC (configuration not stated)
839	O=C(c1ccc2c(c1)OCCO2)N1CCCCC1
695	CCn1cc(CC(=O)NCc2cccc(OC)c2)c2cccnc21
718	CCc1onc(C)c1C1CCCN1C(=O)Cc1ccc(OC)c(OC)c1 (configuration not stated)
822	COc1ccccc1CCC(=O)Nc1ccc2c(c1)Sc1ncccc1C(=O)N2C
1010	CCOc1ccc(NC(=O)C2CCCN(c3ccc(=O)n(-c4ccc(C)c(Cl)c4)n3)C2)cc1 (configuration not stated)
719	O=C(COc1ccc(F)c(F)c1)NCC1CCOCC1
656	Cc1cc(Nc2ccc(NC(=O)c3ccc4c(c3)OCO4)cc2)nc(N2CCOCC2)n1
953	Cc1nnc(NC(=O)c2ccccc2OCc2nc(-c3ccccc3)no2)s1
722	Cc1ccc(NC(=O)NCC(c2cccnc2)c2cn(C)c3ccccc23)cc1F (configuration not stated)
1040	CC1Oc2ccc(-c3csc(NC(=O)c4ccc(Cl)cc4)n3)cc2N(C)C1=O (configuration not stated)
764	CCn1nc(CNC(=O)Cc2cccc(F)c2)c2ccccc21
1080	COc1ccc(OC)c(NC(=O)CN2CC(C)Sc3ccccc32)c1 (configuration not stated)
1220	CC(C)n1c(=O)oc2cc(-c3noc(-c4ccccc4Br)n3)ccc21
900	CCN(CC)C(=O)c1cnc2snc(C)c2c1N1CCC(C(=O)Nc2ccc(OC)c(Cl)c2)CC1
925	CC(C)NC(=O)Cn1cccc1-c1nc(-c2ccc3c(c2)OCO3)no1
869	COc1cccc(Cn2c(N3CCSCC3)nc(C)cc2=O)c1
888	CC(Oc1cccc(Cl)c1)C(=O)N1CCN(c2cc(-c3cccs3)[nH]n2)CC1 (configuration not stated)
824	CC(C)NC(=O)Cn1cccc(-c2nc(-c3ccc(Br)cc3)no2)c1=O
956	COc1ccc(N2CCN(c3nccc(-n4nc(C)cc4C)n3)CC2)cc1
826	CCN(CC)C(=O)c1ccc2c(c1)N(Cc1ccc(F)cc1)C(=O)CO2
774	COc1ccc(-c2cn3c(CC(=O)Nc4ccc(F)c(F)c4)csc3n2)cc1OC
688	Cc1cccc2c(C(=O)NCC(C)C)c3c(nc12)CCC3
1160	Cc1ccc(-n2ncc3c(=O)n(Cc4nc(-c5ccc(Cl)cc5)no4)cnc32)cc1
648	CCc1nccn1Cc1noc(-c2ccc(C)cc2)n1
